Counter-ions that a name gives are not always drawn.
How the values were obtained:
Format in all cases: cell-based
[1] = test system: Hela (cervix adenocarcinoma); experiment: Induction of cell (programmed) death in Hela cells; details: Hela (cervix adenocarcinoma) cell line
[2] = test system: MDA-MB-435 (breast cancer); experiment: Induction of cell (programmed) death in MDA-MB-435 cells; details: MDA-MB-435 (breast cancer) cell line
[3] = test system: MDA-MB-231 (breast cancer); experiment: Induction of cell (programmed) death in MDA-MB-231 cells; details: MDA-MB-231 (breast cancer) cell line
MCF-7 (breast cancer) = experiment: Induction of cell (programmed) death in MCF-7 cells; details: MCF-7 (breast cancer) cell line
HL-60 (leukemia) = experiment: Induction of cell (programmed) death in HL-60 cells; details: HL-60 (leukemia) cell line
A172 (malignant glioma) = experiment: Induction of cell (programmed) death in A172 cells; details: A172 (malignant glioma) cell line
[4] = test system: NCIH1703 (non-small cell lung adenocarcinoma); experiment: Induction of cell (programmed) death in NCIH1703 cells; details: NCIH1703 (non-small cell lung adenocarcinoma) cell line
A357 (lung cancer) = experiment: Induction of cell (programmed) death in A357 cells; details: A357 (lung cancer) cell line
DU145 (prostate cancer) = experiment: Induction of cell (programmed) death in DU145 cells; details: DU145 (prostate cancer) cell line
MM1s (multiple myeloma) = experiment: Induction of cell (programmed) death in MM1s cells; details: MM1s (multiple myeloma) cell line
DF15 (multiple myeloma) = experiment: Induction of cell (programmed) death in DF15 cells; details: DF15 (multiple myeloma) cell line
H929 (multiple myeloma) = experiment: Induction of cell (programmed) death in H929 cells; details: H929 (multiple myeloma) cell line
U266 (multiple myeloma) = experiment: Induction of cell (programmed) death in U266 cells; details: U266 (multiple myeloma) cell line
ANB6 (multiple myeloma) = experiment: Induction of cell (programmed) death in ANB6 cells; details: ANB6 (multiple myeloma) cell line
[5] = test system: MDA-435 human breast cancer cells; experiment: In vitro cell cycle assay (G1 arrest), propidium iodide DNA content by flow cytometry; details: MDA-435 cells synchronized by serum deprivation for 24 hours, released with 10% serum; vehicle 28%
Procedure: Tumor cells were synchronized by serum deprivation for 24 hours, then released by adding 10% serum to the cell culture with either the compound of EXAMPLE 1 ((4-{[3-(2,2-Dimethyl-tetrahydro-pyran-4-yl)-4-phenyl-butylamino]-methyl}-phenyl)-dimethyl-amine) (obtained from ChemBridge Corporation; single peak via HPLC: 20–100% gradient: acetonitrile/water/1% trifluoroacetic acid) or vehicle (dimethylsofloxide). Cells were harvested and stained in 0.04% digitonin working solution with […] propidium iodide. DNA content was analyzed by Flow Cytometry (Coulter). The population of cells in each phase was determined using Expo 32-ADC Software for Coulter EPICS® XL™ Cytometers, version 1.1 B (2001).

[6] = test system: MDA-435 human breast cancer cells; experiment: In vitro apoptosis assay, Annexin V-FITC and PI staining by flow cytometry; details: MDA-435 cells
Procedure: MDA-435 human breast cancer cells were treated with either vehicle or varying doses of the compound of EXAMPLE 1. Cells were harvested and stained with Annexin V-FITC and PI by Flow Cytometry using ApoAlert Annexin V-FITC apoptosis kit (Clonetech, BD). The percentage of apoptotic cells were determined using EPICS® XL™ and XL-MCL, System II™ Software, version 1.0 (1996).

## CN(C)c1ccc(CNCCC(Cc2ccccc2)C2CCOC(C)(C)C2)cc1 (centres unmarked) [EXAMPLE 1, (4-({[3-(2′,2′-dimethyltetrahydropyran-4′-yl)-4-phenylbutylamino]-methyl}-phenyl)-dimethylaminedihydrochloride]
[1]
  induction of cell (programmed) death: induce cell (programmed) death
[2]
  induction of cell (programmed) death: induce cell (programmed) death
[3]
  induction of cell (programmed) death: induce cell (programmed) death
MCF-7 (breast cancer)
  induction of cell (programmed) death: induce cell (programmed) death
HL-60 (leukemia)
  induction of cell (programmed) death: induce cell (programmed) death
A172 (malignant glioma)
  induction of cell (programmed) death: induce cell (programmed) death
[4]
  induction of cell (programmed) death: induce cell (programmed) death
A357 (lung cancer)
  induction of cell (programmed) death: induce cell (programmed) death
DU145 (prostate cancer)
  induction of cell (programmed) death: induce cell (programmed) death
MM1s (multiple myeloma)
  induction of cell (programmed) death: induce cell (programmed) death
DF15 (multiple myeloma)
  induction of cell (programmed) death: induce cell (programmed) death
H929 (multiple myeloma)
  induction of cell (programmed) death: induce cell (programmed) death
U266 (multiple myeloma)
  induction of cell (programmed) death: induce cell (programmed) death
ANB6 (multiple myeloma)
  induction of cell (programmed) death: induce cell (programmed) death
[5]
  G0/G1 to S phase transition blockage: 38%
[6]; varying doses, dose-dependent increase
  cell population with increased intensity of Annexin V-FITC staining: up to 30%
[6]; PI stains cells in a late stage of apoptosis
  PI staining of treated cells: increase in PI staining

From patent US7037936B2, “Compounds useful for the treatment of cancer, compositions thereof and methods therewith” (Signal Pharmaceuticals, LLC., priority 2002, dated 2006)
